Source: patent publication US20210337789A1, “Derivatives of m-Guaiacol, Their Preparation and Their Uses” (Universite de Caen Normandie, priority 2018, published 2021)
Like-named read-outs stand apart in the source and are kept apart here.

Legend:
[1] = test system: E. coli strains presenting high levels of resistance; experiment: Bacterial growth on E. coli strains presenting high levels of resistance; type: cell-based, Escherichia coli; parameters: key to Effects (0 < 1 < 2 < 3): 0 = no effect; 1 = pure only; 2 = several concs; 3 = strong at each; conditions: for Effects (0 < 1 < 2 < 3): molecules at 1, 0.5 and 0.1 mg/ml, triclosan at 0.1 mg/ml
Description: (§1) The bacterial growth is evaluated by measuring the optical density (DO) at 600 nm using NanoDrop.
(§2) This ratio permits a classification of the molecules in 4 effect levels: • 0=no effect observed; • 1=effect observed only when the molecule is tested pure; • 2=effect observed at several concentrations, but which gradually decreases the dilutions; • 3=strong effect observed at each concentration of molecule tested.
(§3) Compounds of the invention were tested on 4 strains of E. coli, 3 strains of K. pneumoniae and 4 strains of S. aureus with the resistance profiles below.

[2] = test system: S. aureus strains presenting high levels of resistance; experiment: Bacterial growth on S. aureus strains presenting high levels of resistance; type: cell-based, Staphylococcus aureus; parameters: key to Effects (0 < 1 < 2 < 3): 0 = no effect; 1 = pure only; 2 = several concs; 3 = strong at each; conditions: for Effects (0 < 1 < 2 < 3): molecules at 1, 0.5 and 0.1 mg/ml, triclosan at 0.1 mg/ml
Description: as §1, §2, §3

[3] = test system: KB cells (epidermoid carcinoma); experiment: In vitro cytotoxicity, cell proliferation test (MTS) on KB cells; type: cell-based; conditions: Homo sapiens, read-out: percentage of inhibition of cell growth
Description: The human cell strain KB (epidermoid carcinoma) was obtained from the NCI (National Cancer Institute) and cultivated in the D-MEM medium added with 10% of foetal bovine serum (Invitrogen) in the presence of penicillin, streptomycin and fungizone in flasks of […] under CO2 at 5%. The cells were deposited on tissue culture microplates with 96 wells and a density of 650 cells/well in 200 μl of medium and treated 24 hours later with compounds of the invention dissolved in DMSO at concentrations going from 0.5 nM to 10 μM using a Biomek 3000 (Beckman-Coulter) automaton. The controls received the same volume of DMSO (1% of final volume). After 72 hours of exposure, the MTS reagent (Celltiter 96Aqueous One solution, Promega) was added and incubated for 3 hours at 37° C.: the absorbance was measured at 490 nm and the results of inhibition of the cell proliferation were calculated according to the ratio [(1−(OD490treated/OD490control))×100].
Results: Cytotoxicity at 10^−5 and 10^−6M on Triplicate KB Cells, Measured after 72 Hours of Exposure.
The percentage of inhibition of cell growth with respect to the cells receiving the same quantity of DMSO is outlined in the table below.

[4] = test system: K. pneumoniae strains presenting high levels of resistance; experiment: Bacterial growth on K. pneumoniae strains presenting high levels of resistance; type: cell-based, Klebsiella pneumoniae; parameters: key to Effects (0 < 1 < 2 < 3): 0 = no effect; 1 = pure only; 2 = several concs; 3 = strong at each; conditions: for Effects (0 < 1 < 2 < 3): molecules at 1, 0.5 and 0.1 mg/ml, triclosan at 0.1 mg/ml
Description: as §1, §2, §3

[5] = test system: Klebsiella pneumoniae; experiment: Bacterial growth screening on wild-type phenotype strain, K. pneumoniae; type: cell-based
Description: as §1, §2
(§4) A screening of molecules of the invention on several wild-type phenotype strains has been carried out.
(§5) The strains initially selected are: • Gram+: Streptococcus equi subsp zooepidemicus and Staphylococcus aureus • Gram−: Escherichia coli, Klebsiella pneumoniae and Stenotrophomonas maltophila.

[6] = test system: Escherichia coli; experiment: Bacterial growth screening on wild-type phenotype strain, E. coli; type: cell-based
Description: as §1, §2, §4, §5

[7] = test system: Micrococcus luteus reference strain; experiment: Bacterial growth (optical density at 600 nm) on Micrococcus luteus reference strain; type: cell-based; parameters: key: 0 = no effect, 1 = pure only, 2 = several concentrations, 3 = strong at all; conditions: in DMSO diluted in PBS, compared with triclosan
Description: as §1, §2
The molecules are put in a solution in DMSO and diluted in PBS.

[8] = test system: Staphylococcus aureus; experiment: Bacterial growth screening on wild-type phenotype strain, S. aureus; type: cell-based
Description: as §1, §2, §4, §5

[9] = test system: Streptococcus equi subsp zooepidemicus; experiment: Bacterial growth screening on wild-type phenotype strain, S. zooepidemicus; type: cell-based
Description: as §1, §2, §4, §5

[10] = test system: Stenotrophomonas maltophila; experiment: Bacterial growth screening on wild-type phenotype strain, S. maltophila; type: cell-based
Description: as §1, §2, §4, §5

[11] = K. pneumoniae Strain 1, 0.1 mg/ml
[12] = K. pneumoniae Strain 2, 0.1 mg/ml
[13] = K. pneumoniae Strain 3, 0.1 mg/ml
[14] = 10^−5 M, KB cells, triplicate, 72 hours of exposure, with respect to DMSO control
[15] = 10^−6 M, KB cells, triplicate, 72 hours of exposure, with respect to DMSO control

Oc1cc(Cl)ccc1Oc1ccc(Cl)cc1Cl [Triclosan, reference compound]
Δ DO ([1]; E. coli Strain 1, 0.1 mg/ml): 1.005 | Effects (0 < 1 < 2 < 3) ([1]; E. coli Strain 1): 3 | Δ DO ([1]; E. coli Strain 2, 0.1 mg/ml): 1.197 | Effects (0 < 1 < 2 < 3) ([1]; E. coli Strain 2): 3 | Δ DO ([1]; E. coli Strain 3, 0.1 mg/ml): 0.948 | Effects (0 < 1 < 2 < 3) ([1]; E. coli Strain 3): 3 | Δ DO ([1]; E. coli Strain 4, 0.1 mg/ml): 1.080 | Effects (0 < 1 < 2 < 3) ([1]; E. coli Strain 4): 3 | Δ DO ([2]; S. aureus Strain 1, 0.1 mg/ml): 0.441 | Effects (0 < 1 < 2 < 3) ([2]; S. aureus Strain 1): 3 | Δ DO ([2]; S. aureus Strain 2, 0.1 mg/ml): 0.459 | Effects (0 < 1 < 2 < 3) ([2]; S. aureus Strain 2): 3 | Δ DO ([2]; S. aureus Strain 3, 0.1 mg/ml): 0.532 | Effects (0 < 1 < 2 < 3) ([2]; S. aureus Strain 3): 3 | Δ DO ([2]; S. aureus Strain 4, 0.1 mg/ml): 0.490 | Effects (0 < 1 < 2 < 3) ([2]; S. aureus Strain 4): 3 | inhibition at 1 µM ([3]; KB, 72 h): 5 ± 12% | inhibition at 10 µM ([3]; KB, 72 h): 78 ± 3% | Δ DO [4, 11]: 0.824 | Effects (0 < 1 < 2 < 3) ([4]; K. pneumoniae Strain 1): 3 | Δ DO [4, 12]: 0.893 | Effects (0 < 1 < 2 < 3) ([4]; K. pneumoniae Strain 2): 3 | Δ DO [4, 13]: 1.092 | Effects (0 < 1 < 2 < 3) ([4]; K. pneumoniae Strain 3): 3

COc1cc(O)c(F)cc1Cl [sr7580]
inhibition at 10 µM [3, 14]: 16 ± 4% | inhibition at 1 µM [3, 15]: 5 ± 8%

COc1cc(O)c(Cl)cc1F [sr7581]
inhibition at 10 µM [3, 14]: 0% | inhibition at 1 µM [3, 15]: 0%

COc1cc(O)c(Br)cc1Br [sr7582]
inhibition at 1 µM ([3]; KB, 72 h): 0% | inhibition at 10 µM ([3]; KB, 72 h): 1 ± 7%

COc1cc(O)c(Cl)cc1Br [sr7583]
Effect level, K. pneumoniae [5]: 2 | Effect level, E. coli [6]: 2 | Effect level [7]: 3 | inhibition at 10 µM [3, 14]: 0% | inhibition at 1 µM [3, 15]: 0%

COc1cc(O)c(I)cc1I [sr7584]
Effect level [7]: 2 | inhibition at 1 µM ([3]; KB, 72 h): 0% | inhibition at 10 µM ([3]; KB, 72 h): 0%

COc1cc(O)c(Cl)c(Cl)c1Cl [sr7585]
Effect level, K. pneumoniae [5]: 2 | Δ DO ([1]; E. coli Strain 1, 0.1 mg/ml): 0.196 | Δ DO ([1]; E. coli Strain 1, 0.5 mg/ml): 0.746 | Δ DO ([1]; E. coli Strain 1, 1 mg/ml): 0.920 | Effects (0 < 1 < 2 < 3) ([1]; E. coli Strain 1): 3 | Δ DO ([1]; E. coli Strain 2, 0.1 mg/ml): 0.313 | Δ DO ([1]; E. coli Strain 2, 0.5 mg/ml): 0.964 | Δ DO ([1]; E. coli Strain 2, 1 mg/ml): 1.097 | Effects (0 < 1 < 2 < 3) ([1]; E. coli Strain 2): 3 | Δ DO ([1]; E. coli Strain 3, 0.1 mg/ml): 0.186 | Δ DO ([1]; E. coli Strain 3, 0.5 mg/ml): 0.736 | Δ DO ([1]; E. coli Strain 3, 1 mg/ml): 0.893 | Effects (0 < 1 < 2 < 3) ([1]; E. coli Strain 3): 3 | Δ DO ([1]; E. coli Strain 4, 0.1 mg/ml): 0.322 | Δ DO ([1]; E. coli Strain 4, 0.5 mg/ml): 0.848 | Δ DO ([1]; E. coli Strain 4, 1 mg/ml): 0.979 | Effects (0 < 1 < 2 < 3) ([1]; E. coli Strain 4): 3 | Effect level, E. coli [6]: 3 | Δ DO ([2]; S. aureus Strain 1, 0.1 mg/ml): 0.352 | Δ DO ([2]; S. aureus Strain 1, 0.5 mg/ml): 0.445 | Δ DO ([2]; S. aureus Strain 1, 1 mg/ml): 0.445 | Effects (0 < 1 < 2 < 3) ([2]; S. aureus Strain 1): 3 | Δ DO ([2]; S. aureus Strain 2, 0.1 mg/ml): 0.385 | Δ DO ([2]; S. aureus Strain 2, 0.5 mg/ml): 0.458 | Δ DO ([2]; S. aureus Strain 2, 1 mg/ml): 0.457 | Effects (0 < 1 < 2 < 3) ([2]; S. aureus Strain 2): 3 | Δ DO ([2]; S. aureus Strain 3, 0.1 mg/ml): 0.459 | Δ DO ([2]; S. aureus Strain 3, 0.5 mg/ml): 0.529 | Δ DO ([2]; S. aureus Strain 3, 1 mg/ml): 0.530 | Effects (0 < 1 < 2 < 3) ([2]; S. aureus Strain 3): 3 | Δ DO ([2]; S. aureus Strain 4, 0.1 mg/ml): 0.405 | Δ DO ([2]; S. aureus Strain 4, 0.5 mg/ml): 0.491 | Δ DO ([2]; S. aureus Strain 4, 1 mg/ml): 0.486 | Effects (0 < 1 < 2 < 3) ([2]; S. aureus Strain 4): 3 | Effect level, S. aureus [8]: 3 | Effect level, S. zooepidemicus [9]: 3 | Effect level [7]: 3 | Effect level, S. maltophila [10]: 2 | inhibition at 10 µM [3, 14]: 0% | inhibition at 1 µM [3, 15]: 0% | Δ DO [4, 11]: 0.251 | Δ DO ([4]; K. pneumoniae Strain 1, 0.5 mg/ml): 0.595 | Δ DO ([4]; K. pneumoniae Strain 1, 1 mg/ml): 0.644 | Effects (0 < 1 < 2 < 3) ([4]; K. pneumoniae Strain 1): 3 | Δ DO [4, 12]: 0.035 | Δ DO ([4]; K. pneumoniae Strain 2, 0.5 mg/ml): 0.620 | Δ DO ([4]; K. pneumoniae Strain 2, 1 mg/ml): 0.701 | Effects (0 < 1 < 2 < 3) ([4]; K. pneumoniae Strain 2): 2 | Δ DO [4, 13]: 0.265 | Δ DO ([4]; K. pneumoniae Strain 3, 0.5 mg/ml): 0.683 | Δ DO ([4]; K. pneumoniae Strain 3, 1 mg/ml): 0.872 | Effects (0 < 1 < 2 < 3) ([4]; K. pneumoniae Strain 3): 2

COc1c(Cl)cc(Cl)c(O)c1Cl [sr7586]
inhibition at 10 µM [3, 14]: 0% | inhibition at 1 µM [3, 15]: 6 ± 8%

COc1c(Cl)c(O)c(Cl)c(F)c1Cl [sr7587]
inhibition at 10 µM [3, 14]: 0% | inhibition at 1 µM [3, 15]: 8 ± 4%

COc1c(Cl)cc(Cl)c(O)c1C [sr7607]
Effect level [7]: 2 | inhibition at 10 µM [3, 14]: 0% | inhibition at 1 µM [3, 15]: 0%

COc1cc(O)c(Cl)c(C)c1Cl [sr7608]
Effect level [7]: 2 | inhibition at 10 µM [3, 14]: 7 ± 11% | inhibition at 1 µM [3, 15]: 0%

COc1cc(O)c(Cl)c(Br)c1 [sr7609]
Effect level, K. pneumoniae [5]: 2 | Effect level, E. coli [6]: 2 | Effect level, S. aureus [8]: 2 | Effect level [7]: 3 | Effect level, S. maltophila [10]: 2

COc1cc(O)c(Cl)c(F)c1F [sr7610]
Effect level [7]: 2

COc1cc(O)c(Br)c(F)c1F [sr7611]
Effect level [7]: 2

COc1cc(O)c(I)c(F)c1F [sr7612]
Effect level [7]: 2

COc1cc(O)c(Cl)c(Br)c1F [sr7614]
Effect level, K. pneumoniae [5]: 2 | Effect level, E. coli [6]: 3 | Effect level, S. aureus [8]: 2 | Effect level, S. zooepidemicus [9]: 2 | Effect level [7]: 3 | Effect level, S. maltophila [10]: 2 | inhibition at 10 µM [3, 14]: 6 ± 4% | inhibition at 1 µM [3, 15]: 0%

Oc1cc(I)c(F)cc1F [sr7618]
Effect level [7]: 2
